The test has as its target T1, stearoyl-CoA desaturase (SCD) (Rattus norvegicus, UniProt P07308).
T1 construct: 0.032 mg/ml rat liver microsomes (total protein content); from tissue
T1 sequence (P07308 1-358): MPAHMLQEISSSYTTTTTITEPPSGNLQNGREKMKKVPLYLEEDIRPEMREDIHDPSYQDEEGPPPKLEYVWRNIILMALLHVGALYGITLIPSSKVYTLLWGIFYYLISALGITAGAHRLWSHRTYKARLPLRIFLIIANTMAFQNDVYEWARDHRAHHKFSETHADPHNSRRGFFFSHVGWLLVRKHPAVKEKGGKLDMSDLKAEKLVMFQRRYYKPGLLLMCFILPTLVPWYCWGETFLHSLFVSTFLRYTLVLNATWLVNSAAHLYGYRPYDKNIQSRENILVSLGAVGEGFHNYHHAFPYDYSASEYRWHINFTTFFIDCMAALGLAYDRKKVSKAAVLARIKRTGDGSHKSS
The test can be described thus: Tritium release screening assay for inhibition of stearoyl-CoA desaturase activity in rat liver microsomes (96- or 384-well). Format: biochemical. The settings on record: [3H]-stearoyl-CoA, 20 min pre-incubation, 20 min reaction. The source says:
The tritium release assay for the measurement of SCD activity is thus well documented in the literature. Descriptions on how these finding have been used to produce standard screening assays in 96-well plates are also available [Brownlie, Hayden, Attie, Ntambi, Gray-Keller, & Miyazaki (2001) WO 01/62954; Wu, Gallipoli, Gallagher, & Gardell (2004) WO 2004/04776]. We have adopted the tritium release assay to a 384-well format to improve throughput even further.
Microsomal preparations were prepared from the livers of Male Sprague-Dawley rats that had been fasted and then refed a low fat/high carbohydrate diet. The preparation of microsomes was adopted from Seifried and Gaylor [Seifried & Gaylor (1976) J. Biol. Chem. 251, 7468-7473]. Confirmation of compound activity on human material was made based on microsomal preparations from HepG2 cells. All other reagents were purchased from commercial sources. The assay was run in 96 or 384-well microtiter plates by consecutive additions of a test compound solution, a microsomal preparation solution and a substrate containing solution. The final concentrations of all reagents in a total assay volume of 40 μl per well (in the 384-well plate format) were: • 0.11 μM [^3H]-stearoyl-CoA • 50 nM stearoyl-CoA • 0.032 mg/ml rat liver microsomes (total protein content) • 2 mM NADH • 220 mM sucrose • 44 mM NaH2PO4 pH adjusted to 6.8 • 130 mM KCl • 1.3 mM GSH • 0.05 mM CoA • 0.1% BSA • 0.29 mM nicotine amide • 15 mM NaF • 1.1 mM ATP • 4.9 mM MgCl2 • 0.002% Tween-20 • A test compound at various concentrations (which also adds 0.5-2% DMSO to the final solution)
The test compounds were pre-incubated for 20 minutes with the microsomal preparation prior to starting the reaction by the addition of substrate. The enzymatic reaction was allowed to proceed for 20 minutes and then optionally slowed by an addition of 40 μl of a 2% DMSO solution in water containing a known inhibitor of SCD activity. The solutions were mixed and then 70 μl of the total 80 μl were transferred to a filter plate containing predispensed activated charcoal. The plate was then centrifuged and the filtrate collected in a collector plate to which 40 μl of Optiphase Supermix was added per well. Following an 18 h equilibration time at room temperature the plate was read in a Trilux MicroBeta (two minutes counting time per well). […] The inhibitory potency or IC50 values of test compounds on SCD activity were defined by applying the same assay in the presence of sub-nM to sub-mM compound concentrations.
In general terms: Liver microsomes are a subcellular fraction often used to study metabolism.

Our source for the IC50 values is patent US20080255153A1, “New compounds” (BIOVITRUM AB (publ), priority 2007, published 2008).

As a reminder, the IC50 is the concentration needed to halve the response being measured. The low end stands for higher potency, the high end for lower potency.

On to `O=CNCCNC(=O)c1cnn2cc(Cc3ccc(Br)cc3)cnc12` [Example 25, 6-(4-Bromobenzyl)-N-[2-(formylamino)ethyl]pyrazolo[1,5-α]pyrimidine-3-carboxamide], for which the IC50 was 27 nM.

Turning to `Cc1nc2c(C(=O)NCCOCCO)cnn2cc1Cc1ccc(F)c(OC(F)(F)F)c1` [Example 38, 6-[4-Fluoro-3-(trifluoromethoxy)benzyl]-N-[2-(2-hydroxyethoxy)ethyl]-5-methyl-pyrazolo[1,5-α]pyrimidine-3-carboxamide], the IC50 is 140 nM. Then `Cc1c(Cc2ccccc2)cnc2c(C(=O)NCCOCCO)cnn12` [Example 39, 6-Benzyl-N-[2-(2-hydroxyethoxy)ethyl]-7-methylpyrazolo[1,5-α]pyrimidine-3-carboxamide], with 610 nM. For `NC(=O)COC(=O)c1cnn2cc(Cc3ccc(F)c(C(F)(F)F)c3)cnc12` [Example 48, 2-Amino-2-oxoethyl 6-[4-fluoro-3-(trifluoromethyl)benzyl]pyrazolo[1,5-α]pyrimidine-3-carboxylate], the IC50 is 91 nM. As to `NC(=O)CNC(=O)c1cnn2cc(Sc3cccc(C(F)(F)F)c3)cnc12` [Example 50, N-(2-Amino-2-oxoethyl)-6-{[3-(trifluoromethyl)phenyl]thio}pyrazolo[1,5-α]-pyrimidine-3-carboxamide], it took 480 nM to reach half-maximal inhibition (IC50). Then `NC(=O)CNC(=O)c1cnn2cc(Cc3cccc(Cl)c3Cl)cnc12` [Example 56, N-(2-Amino-2-oxoethyl)-6-(2,3-dichlorobenzyl)pyrazolo[1,5-α]pyrimidine-3-carboxamide], with 22 nM.
